Source: ChEMBL document CHEMBL3774310, “Discovery of antitumor anthra[2,3-b]furan-3-carboxamides: Optimization of synthesis and evaluation of antitumor properties” (Eur J Med Chem, 2016)
Calls of active or inactive are those of the source. No cut-off for these calls is given here.

How the values were obtained:
HCT-116 [1] = test: Induction of apoptosis in p53 knockout human HCT116 cells assessed as viable cells at 1 uM after 48 hrs by Annexin V-FITC/propidium iodide staining based assay (reference value: 93 +/- 3%); format: functional
[2] = target: T1, DNA topoisomerase 1 (Homo sapiens) (UniProt P11387); test: Inhibition of topoisomerase 1 (unknown origin) assessed as attenuation of enzyme-mediated relaxation of supercoiled pBR322 DNA up to 1 uM after 30 mins by agarose gel electrophoresis
T1 sequence (whole entry): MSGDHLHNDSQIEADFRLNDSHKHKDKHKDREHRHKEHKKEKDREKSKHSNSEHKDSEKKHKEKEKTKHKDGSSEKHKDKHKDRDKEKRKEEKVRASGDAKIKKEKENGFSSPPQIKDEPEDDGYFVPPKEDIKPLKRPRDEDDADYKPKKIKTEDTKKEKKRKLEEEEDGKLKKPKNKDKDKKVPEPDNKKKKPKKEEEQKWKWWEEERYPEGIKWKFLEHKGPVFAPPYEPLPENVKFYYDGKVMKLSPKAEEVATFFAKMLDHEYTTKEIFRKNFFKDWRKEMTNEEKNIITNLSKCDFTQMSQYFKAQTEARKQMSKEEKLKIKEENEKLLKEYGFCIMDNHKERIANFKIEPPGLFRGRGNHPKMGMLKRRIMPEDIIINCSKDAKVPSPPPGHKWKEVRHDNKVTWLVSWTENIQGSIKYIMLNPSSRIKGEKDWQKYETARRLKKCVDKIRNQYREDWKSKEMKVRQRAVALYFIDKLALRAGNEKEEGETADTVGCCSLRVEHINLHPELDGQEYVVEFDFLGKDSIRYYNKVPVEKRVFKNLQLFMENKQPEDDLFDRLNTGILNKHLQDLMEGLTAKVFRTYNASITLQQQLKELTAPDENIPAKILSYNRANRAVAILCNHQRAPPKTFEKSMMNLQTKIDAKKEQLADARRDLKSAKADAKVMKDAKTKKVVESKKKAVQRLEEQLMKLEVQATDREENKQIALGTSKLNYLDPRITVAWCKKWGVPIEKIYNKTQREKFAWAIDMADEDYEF

HCT-116 [3] = test: Induction of apoptosis in human HCT116 cells assessed as late apoptotic cells at 1 uM after 24 hrs by Annexin V-FITC/propidium iodide staining based assay (reference value: 1 +/- 1%); format: functional
[4] = Cell cycle arrest in human HCT116 cells assessed as decrease in S phase at 1 uM after 24 hrs; format: functional, cell-based; conditions: HCT-116
HCT-116 [5] = test: Induction of apoptosis in human HCT116 cells assessed as early apoptotic cells at 1 uM after 24 hrs by Annexin V-FITC/propidium iodide staining based assay (reference value: 2 +/- 1%); format: functional
HCT-116 [6] = test: Induction of apoptosis in p53 knockout human HCT116 cells assessed as late apoptotic cells at 1 uM after 48 hrs by Annexin V-FITC/propidium iodide staining based assay (reference value: 2 +/- 1%); format: functional
[7] = target: T1, DNA topoisomerase 1 (Homo sapiens); test: Poisoning activity at topoisomerase 1 (unknown origin) using 3'-[32P]dGTP labelled 117bp oligonucleotide assessed as induction of DNA cleavage incubated for 20 mins by SDS-PAGE analysis
HCT-116 [8] = test: Induction of apoptosis in p53 knockout human HCT116 cells assessed as viable cells at 1 uM after 24 hrs by Annexin V-FITC/propidium iodide staining based assay (reference value: 93 +/- 3%); format: functional
K562 = test: Binding affinity to P-gp in human K562 cells assessed as drug accumulation at 1 uM incubated for 1 to 24 hrs by flow cytometry; format: cell-based
P388 [9] = test: Antitumor activity against mouse P388 cells transplanted in DBA2/BDF1 mouse assessed as mean life span at 30 mg/kg, ip dosed daily for 5 days relative to control; format: functional
P388 [10] = test: Antitumor activity against mouse P388 cells transplanted in DBA2/BDF1 mouse assessed as mean life span at 50 mg/kg, ip dosed daily for 5 days (reference value: 9.7 +/- 1.1 day); format: functional
[11] = Cell cycle arrest in p53 knockout human HCT116 cells assessed as decrease in S phase at 1 uM after 24 hrs; format: functional, cell-based; conditions: HCT-116
[12] = Cell cycle arrest in p53 knockout human HCT116 cells assessed as decrease in G1 phase at 1 uM after 24 hrs; format: functional, cell-based; conditions: HCT-116
PBL = test: Cytotoxicity against human PBL assessed as reduction in cell viability after 72 hrs by MTT assay; format: cell-based
[13] = Cell cycle arrest in human HCT116 cells assessed as accumulation in sub G1 phase at 1 uM after 24 to 48 hrs relative to control; format: functional, cell-based; conditions: HCT-116
[14] = target: T1, DNA topoisomerase 1 (Homo sapiens); test: Inhibition of topoisomerase 1 (unknown origin) assessed as attenuation of enzyme-mediated relaxation of supercoiled pBR322 DNA after 30 mins by agarose gel electrophoresis
K562/4 = test: Binding affinity to P-gp in human K562/4 cells assessed as drug accumulation at 1 uM incubated for 1 to 24 hrs by flow cytometry; format: cell-based
[15] = Cell cycle arrest in p53 knockout human HCT116 cells assessed as accumulation in sub G1 phase at 1 uM after 24 to 48 hrs relative to control; format: functional, cell-based; conditions: HCT-116
HCT-116 [16] = test: Induction of apoptosis in p53 knockout human HCT116 cells assessed as early apoptotic cells at 1 uM after 48 hrs by Annexin V-FITC/propidium iodide staining based assay (reference value: 2 +/- 1%); format: functional
HCT-116 [17] = test: Induction of apoptosis in p53 knockout human HCT116 cells assessed as necrotic cells at 1 uM after 24 hrs by Annexin V-FITC/propidium iodide staining based assay (reference value: 2 +/- 1%); format: functional
[18] = Cytotoxicity against hFB-hTERT6 assessed as reduction in cell viability after 72 hrs by MTT assay; conditions: Homo sapiens, hFB-hTERT6, 72 h
HCT-116 [19] = test: Induction of apoptosis in human HCT116 cells assessed as early apoptotic cells at 1 uM after 48 hrs by Annexin V-FITC/propidium iodide staining based assay (reference value: 2 +/- 1%); format: functional
HCT-116 [20] = test: Induction of apoptosis in human HCT116 cells assessed as late apoptotic cells at 1 uM after 48 hrs by Annexin V-FITC/propidium iodide staining based assay (reference value: 1 +/- 1%); format: functional
HCT-116 [21] = test: Induction of apoptosis in p53 knockout human HCT116 cells assessed as necrotic cells at 1 uM after 48 hrs by Annexin V-FITC/propidium iodide staining based assay (reference value: 2 +/- 1%); format: functional
[22] = Toxicity in ip dosed DBA2/BDF1 mouse transplanted with mouse P388 cells dosed daily for 5 days; format: organism-based; conditions: in vivo
HCT-116 [23] = test: Induction of apoptosis in human HCT116 cells assessed as necrotic cells at 1 uM after 24 hrs by Annexin V-FITC/propidium iodide staining based assay (reference value: 2 +/- 1%); format: functional
[24] = target: DNA topoisomerase 2-alpha (Homo sapiens) (UniProt P11388); test: Inhibition of human topoisomerase 2-alpha assessed as attenuation of enzyme-mediated relaxation of supercoiled pBR322 DNA at 40 uM after 30 mins by agarose gel electrophoresis
Calf thymus DNA = test: Binding affinity to calf thymus DNA at 5 uM by fluorescence assay; format: nucleic-acid assay; conditions: Bos taurus

Chain of DNA topoisomerase 2-alpha (Homo sapiens) (P11388 whole entry): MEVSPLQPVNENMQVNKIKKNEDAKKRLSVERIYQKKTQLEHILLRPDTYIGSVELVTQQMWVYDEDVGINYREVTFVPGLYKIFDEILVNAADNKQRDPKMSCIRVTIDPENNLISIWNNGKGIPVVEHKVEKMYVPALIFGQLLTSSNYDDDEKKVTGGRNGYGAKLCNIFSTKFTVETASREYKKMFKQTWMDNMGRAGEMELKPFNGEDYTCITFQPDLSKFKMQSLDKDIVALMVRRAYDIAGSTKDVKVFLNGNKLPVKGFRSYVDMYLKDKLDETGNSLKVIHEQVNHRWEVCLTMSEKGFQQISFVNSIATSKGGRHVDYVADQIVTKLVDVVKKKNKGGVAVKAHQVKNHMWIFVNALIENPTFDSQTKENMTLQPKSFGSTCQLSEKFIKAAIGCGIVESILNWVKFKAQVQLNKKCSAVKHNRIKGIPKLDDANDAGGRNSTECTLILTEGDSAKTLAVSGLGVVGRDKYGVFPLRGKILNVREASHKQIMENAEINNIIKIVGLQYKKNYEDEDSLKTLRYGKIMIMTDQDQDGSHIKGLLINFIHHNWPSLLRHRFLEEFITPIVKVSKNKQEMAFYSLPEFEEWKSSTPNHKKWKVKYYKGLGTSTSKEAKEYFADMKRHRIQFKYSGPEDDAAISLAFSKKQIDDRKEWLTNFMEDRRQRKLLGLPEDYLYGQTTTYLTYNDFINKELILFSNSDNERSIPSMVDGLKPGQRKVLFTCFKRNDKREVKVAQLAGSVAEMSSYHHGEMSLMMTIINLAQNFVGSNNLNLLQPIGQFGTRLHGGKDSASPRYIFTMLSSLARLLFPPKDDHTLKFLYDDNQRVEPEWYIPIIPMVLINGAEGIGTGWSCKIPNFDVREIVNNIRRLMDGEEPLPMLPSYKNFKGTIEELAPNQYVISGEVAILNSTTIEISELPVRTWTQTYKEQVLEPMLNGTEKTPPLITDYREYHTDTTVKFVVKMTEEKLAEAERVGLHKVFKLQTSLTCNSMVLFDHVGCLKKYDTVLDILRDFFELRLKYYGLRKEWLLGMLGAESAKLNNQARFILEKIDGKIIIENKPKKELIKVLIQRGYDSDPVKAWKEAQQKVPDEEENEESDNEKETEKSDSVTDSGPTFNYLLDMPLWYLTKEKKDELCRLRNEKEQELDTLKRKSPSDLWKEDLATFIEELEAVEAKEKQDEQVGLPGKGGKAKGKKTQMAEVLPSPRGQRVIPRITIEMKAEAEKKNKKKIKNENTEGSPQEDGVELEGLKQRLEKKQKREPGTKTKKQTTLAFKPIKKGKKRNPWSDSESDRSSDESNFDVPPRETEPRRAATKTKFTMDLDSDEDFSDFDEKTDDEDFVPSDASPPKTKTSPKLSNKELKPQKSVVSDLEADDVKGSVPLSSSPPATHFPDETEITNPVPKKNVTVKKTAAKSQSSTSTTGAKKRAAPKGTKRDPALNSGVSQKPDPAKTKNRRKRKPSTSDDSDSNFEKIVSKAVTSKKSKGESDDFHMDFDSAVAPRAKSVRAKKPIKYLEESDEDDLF

SMILES: CS(=O)(=O)O.Cc1oc2c(O)c3c(c(O)c2c1C(=O)N1CC[C@H](N)C1)C(=O)c1ccccc1C3=O
- viability at 1 µM (HCT-116 [1]; HCT-116, 48 h, read-out: Activity): 7%
- Activity [2]: inactive
- Activity (HCT-116 [3]): 12%
- Activity [4]: Active
- Activity (HCT-116 [5]): 20%
- Activity (HCT-116 [6]): 14%
- Activity [7]: inactive
- viability at 1 µM (HCT-116 [8]; HCT-116, 24 h, read-out: Activity): 54%
- Activity (K562): inactive
- Activity (P388 [9]): 214%
- Activity (P388 [10]): 6.5 days
- Activity [11]: Active
- Activity [12]: Active
- Activity (PBL): Non-toxic
- Activity [13]: > 70%
- Activity [14]: Dose-dependent effect
- Activity (K562/4): inactive
- Activity [15]: > 70%
- Activity (HCT-116 [16]): 46%
- Activity (HCT-116 [17]): 11%
- IC50 [18]: > 50 µM
- Activity (HCT-116 [19]): 45%
- Activity (HCT-116 [20]): 13%
- Activity (HCT-116 [21]): 33%
- MTD at 120 h [22]: 30 mg/kg
- Activity (HCT-116 [23]): 10%
- Activity [24]: Active
- Activity (Calf thymus DNA): Active

SMILES: CS(=O)(=O)O.Cc1oc2c(O)c3c(c(O)c2c1C(=O)N1CC[C@@H](N)C1)C(=O)c1ccccc1C3=O
- Activity (HCT-116 [1]): Active
- Activity [2]: inactive
- Activity (HCT-116 [3]): Active
- Activity [4]: Active
- Activity (HCT-116 [5]): Active
- Activity (HCT-116 [6]): Active
- Activity [7]: inactive
- Activity (HCT-116 [8]): Active
- Activity (K562): inactive
- Activity (P388 [9]): 122%
- Activity (P388 [10]): 17.3 days
- Activity [11]: Active
- Activity [12]: Active
- Activity (PBL): Non-toxic
- Activity [13]: > 70%
- Activity [14]: Dose-dependent effect
- Activity (K562/4): inactive
- Activity [15]: > 70%
- Activity (HCT-116 [16]): Active
- Activity (HCT-116 [17]): Active
- IC50 [18]: > 50 µM
- Activity (HCT-116 [19]): Active
- Activity (HCT-116 [20]): Active
- Activity (HCT-116 [21]): Active
- MTD at 120 h [22]: 50 mg/kg
- Activity (HCT-116 [23]): Active
- Activity [24]: Active
- Activity (Calf thymus DNA): Active
